Data: article PMC3432695 (European journal of medicinal chemistry, 2012)
Values after ≈ are worked out from the molar mass of the structure shown. Values joined by “and” are separate entries in the source; they are usually repeats but may differ in a detail not shown here. Equal values may be shown once.

Columns and labels:
[1] = Chemical; assay type: physicochemical; conditions: for t1/2 PBS: PBS pH 7.4, 37 °C, 2 mM
[2] = Solubility in PBS at pH 5, pH 6 and pH 7.4; assay type: physicochemical; conditions: for solubility PBS pH 5: PBS pH 5, 37 °C; for solubility PBS pH 5 / solubility PBS pH 6 / solubility PBS pH 7.4: hydrochloride salts of 12, 15, 18, 21; for solubility PBS pH 6: PBS pH 6, 37 °C; for solubility PBS pH 7.4: PBS pH 7.4, 37 °C; for solubility at 4 h: PBS, 37 °C, thermodynamic from solid
[3] = system: TK1 (+) L929 cells; conditions: cited from earlier work; for in vitro uptake in TK1 (+) L929 cells relative to TK1 (−) L929 cells: 24 h incubation in compound containing medium; for retention in cells: incubation continued for 12 h in compound free medium
[4] = Stability; assay type: in vitro ADME, Bovine; conditions: for t1/2 Bovine serum: 37 °C, 2 mM; for hydrolysis rate in Bovine serum relative to rate in PBS: times faster in Bovine serum than in PBS
[5] = Stability in Bovine CSF; assay type: in vitro ADME; conditions: for t1/2 Bovine CSF: 37 °C, 2 mM
[6] = system: TK1 (+)- or TK1 (−) L929 tumors; conditions: intratumoral injection, subcutaneous tumors in nude mice; cited from earlier work
[7] = system: intracranial RG2 glioma; conditions: cited from earlier work
[8] = ref Song et al. 15; cited from earlier work
[9] = ref Song et al. 15; cited from earlier work; remark: listed apart in the source
[10] = cited from earlier work

| Compound | t1/2 PBS [1] [h] | solubility PBS pH 5 [2] | solubility PBS pH 6 [2] | solubility PBS pH 7.4 [2] | t1/2 Bovine serum [4] [h] | hydrolysis rate in Bovine serum relative to rate in PBS [4] | t1/2 Bovine CSF [5] [h] | other results |
| --- | --- | --- | --- | --- | --- | --- | --- | --- |
| 3',5'-Di-L-glutam-5-yl-3-(5-{o-carboran-1-yl}pentan-1-yl)thymidine [Compound 19] | 3.42 ± 0.10 |  |  |  |  |  |  |  |
| 3-(5-{o-Carboran-1-yl}pentan-1-yl)thymidine [Compound 1] |  | 0.003–0.005 g/L | 0.003–0.005 g/L | 0.003–0.005 g/L |  |  |  | in vitro uptake in TK1 (+) L929 cells relative to TK1 (−) L929 cells [3]: 5–10; retention in cells [3]: retained only in the former cell line |
| 5'-L-Valyl-3-(5-{o-carboran-1-yl}pentan-1-yl)thymidine [Compound 12] | 25.59 ± 0.61 | 26.30 ± 0.90 g/L | 3.70 ± 0.31 g/L | 1.31 ± 0.05 g/L | 22.21 ± 0.52 | 1.2 times | 25.47 ± 0.10 | solubility relative to compounds 15 and 21 ([2]; PBS pH 5, 6, 7.4): 1–7 times |
| 5'-Glycinyl-3-[5-(2-{2,3-dihydroxyprop-1-yl}-o-carboran-1-yl)pentan-1-yl]thymidine [Compound 21] | 2.21 ± 0.15 | 11.18 ± 0.21 g/L | 3.60 ± 0.12 g/L | 0.62 ± 0.03 g/L | 1.51 ± 0.04 | 1.5 times | 2.11 ± 0.14 |  |
| 3-[5-{2-(2,3-dihydroxyprop-1-yl)-o-carboran-1-yl}pentan-1-yl]thymidine [Compound 2] |  | 0.007–0.01 g/L | 0.007–0.01 g/L | 0.007–0.01 g/L |  |  |  | in vitro uptake in TK1 (+) L929 cells relative to TK1 (−) L929 cells [3]: 5–10; retention in cells [3]: retained only in the former cell line; boron concentration in TK1 (+) relative to TK1 (−) L929 tumors [6]: ~ 3 times; survival times relative to rats that received BNCT without compound ([7]; intracranial injection prior to BNCT, rats with intracranial RG2 glioma): about 2 times; pathologic alterations in rat brains ([7]; rat, in vivo): no significant pathologic alterations |
| 3',5'-Di-L-valyl-3-(5-{o-carboran-1-yl}pentan-1-yl)thymidine [Compound 13] | 12.91 ± 0.17 |  |  |  |  |  |  |  |
| 3',5'-Di-glycinyl-3-(5-{o-carboran-1-yl}pentan-1-yl)thymidine [Compound 16] | 0.22 ± 0.03 |  |  |  |  |  |  |  |
| 3'-Glycinyl-3-(5-{o-carboran-1-yl}pentan-1-yl)thymidine [Compound 14] | 1.51 ± 0.11 |  |  |  |  |  |  |  |
| CC(C)[C@H](N)C(=O)OCCOCn1cnc2c(=O)[nH]c(N)nc21 [Compound 4, valacyclovir, reference compound] |  |  |  |  |  | 2.2 times |  | half-life at 2 mM ([1]; PBS, pH 7.4): 13.6 ± 0.49 h; half-life at 2 mM ([4]; bovine, bovine serum): 6.2 ± 0.17 h; half-life at 2 mM ([5]; bovine, bovine CSF): 7.59 ± 0.12 h; solubility relative to 12 ([2]; PBS pH 5, 6, 7.4): 1.5–3 times; solubility at 4 h ([2]; pH 5, aqueous buffer): 72.7 ± 0.4 mg/mL (≈ 224 mM); solubility at 4 h ([2]; pH 6, aqueous buffer): 13.4 ± 0.26 mg/mL (≈ 41.4 mM); solubility at 4 h ([2]; pH 7.4, aqueous buffer): 1.91 ± 0.06 mg/mL (≈ 5.89 mM); half-life for the chemical hydrolysis [8]: 17.15 h; half-life for the hydrolysis in human plasma [9]: 5.2 h; water solubility relative to parental nucleoside analogue (acyclovir) [10]: about 130 times |
| 3'-L-Glutam-5-yl-3-(5-{o-carboran-1-yl}pentan-1-yl)thymidine [Compound 17] | 26.91 ± 0.71 |  |  |  |  |  |  |  |
| 5'-L-Glutam-5-yl-3-(5-{o-carboran-1-yl}pentan-1-yl)thymidine [Compound 18] | 11.16 ± 0.37 | 1.13 g/L and 1.16 ± 0.04 g/L | 1.13 ± 0.06 g/L | 1.77 ± 0.08 g/L | 0.85 ± 0.12 | 13.1 times | 1.85 ± 0.11 | hydrolysis rate in CSF relative to PBS ([5]; times higher in Bovine CSF than in PBS): 6 times |
| 3'-L-Valyl-3-(5-{o-carboran-1-yl}pentan-1-yl)thymidine [Compound 11] | 29.79 ± 0.42 |  |  |  |  |  |  |  |
| 5'-Glycinyl-3-(5-{o-carboran-1-yl}pentan-1-yl)thymidine [Compound 15] | 0.70 ± 0.04 | 10.99 ± 0.20 g/L | 2.06 ± 0.11 g/L | 0.19 ± 0.01 g/L | 0.69 ± 0.02 | did not change | 0.96 ± 0.04 |  |
